Measurements reported in patent US20210140962A1, “COMPOUND AND METHOD OF MEASURING INTESTINAL PERMEABILITY AND LEAKY GUT” (priority 2017, published 2021).

Tests used:
[1] = aqueous solution about 2.5 mM; comprised of materials verified as being non-toxic by the FDA; cited from earlier work
intestinal permeability = conditions: rodent model with gradual deterioration of insulin sensitivity and eventual onset of diabetes; oral gavage; change over time (FIG. 5)
Experimental: 100 μg of non-radioactive Cr-EDTA in aqueous solution was administered to C57BL/6 mice and Wistar rats by oral gavage. A urine sample from the animals was then collected 6-10 hours after administration.
The urine sample taken from the animal was incubated with strongly acidic cation exchange resin wherein the active group is nuclear sulfonic acid, e.g., 33% by volume slurry of DOWEX-50-H+® cation exchange resin equilibrated with distilled water at room temperature.
Naturally occurring background Cr ions in the urine were correspondingly bound to the resin. […] The samples were then centrifuged, with the supernatant containing the fraction of administered Cr-EDTA that crossed the intestinal barrier.
The supernatant was injected directly into a Gas Furnace Atomic Absorption Spectroscope (GFAAS) using a graphite tube. The GFAAS apparatus had been calibrated to yield the concentration of Cr in each sample.

Compound: O=C(O)CN(CCN(CC(=O)O)CC(=O)O)CC(=O)O.[Cr] [Cr-EDTA, chromium EDTA complex]
- toxicity [1]: non-toxic
- ratio of Cr to creatinine in urine samples (intestinal permeability): measurable increase
